From PubChem BioAssay AID1053167 (Broad Institute, 2014)
Where “and” joins values, the source holds several entries; their conditions need not be identical. Equal values may be shown once. Calls of active or inactive are those of the source. The rule behind the calls is not given here.

Key:
[1] = Vaccinia virus infected cells, stage specific inhibitors, dose response, confirmatory, dry powder (AID 1053167); conditions: Vaccinia virus infected cells, plate reader read-out
[2] = tested on: Vaccinia virus infected cells, plate reader read-out; assay: as above

| SMILES | AC50 [2] | other results |
| --- | --- | --- |
| C[C@@H](O)C#Cc1ccc2c(c1)O[C@@H](CN(C)C(=O)c1ccc(-c3ccccc3)cc1)[C@@H](C)CN([C@@H](C)CO)S2(=O)=O |  | activity change, negative = inhibition ([1]; at 10 µM (top of the series)): -22% (inactive) |
| CO[C@H]1CN(C)C(=O)c2ccc(NC(=O)c3ccc(F)cc3)cc2OC[C@H](C)N(C(=O)c2ccc(F)cc2)C[C@@H]1C |  | activity change, negative = inhibition ([1]; at 1 µM (top of the series)): 0% (inactive) |
| C[C@@H](O)C#Cc1ccc2c(c1)O[C@@H](CN(C)Cc1ccc(-c3ccccc3)cc1)[C@@H](C)CN([C@@H](C)CO)S2(=O)=O | 2940 nM and 3900 nM |  |
| COc1cccc(-c2ccc(CN(C)C[C@@H]3Oc4cc(C#C[C@@H](C)O)ccc4S(=O)(=O)N([C@@H](C)CO)C[C@@H]3C)cc2)c1 | 2770 nM |  |
| C[C@H](O)C#Cc1ccc2c(c1)O[C@H](CN(C)Cc1ccc(-c3ccccc3)cc1)[C@@H](C)CN([C@H](C)CO)S2(=O)=O | > 20000 nM (inactive) |  |
| C[C@@H](O)C#Cc1ccc2c(c1)O[C@@H](CN(C)Cc1ccc(-c3ccc(Cl)cc3)cc1)[C@@H](C)CN([C@@H](C)CO)S2(=O)=O | 1210 nM |  |
| CNC[C@@H]1Oc2cc(Br)ccc2S(=O)(=O)N([C@@H](C)CO)C[C@@H]1C |  | activity change, negative = inhibition ([1]; at 10 µM (top of the series)): -1% (inactive) |
| COc1ccc(-c2ccc3c(c2)O[C@@H](CN(C)Cc2ccc(-c4ccccc4)cc2)[C@@H](C)CN([C@@H](C)CO)S3(=O)=O)cc1 | > 20000 nM (inactive) |  |
| C[C@H](O)C#Cc1ccc2c(c1)O[C@@H](CN(C)Cc1ccc(-c3ccccc3)cc1)[C@@H](C)CN([C@H](C)CO)S2(=O)=O |  | activity change, negative = inhibition ([1]; at 10 µM (top of the series)): 1% (inactive) |
| Cc1ccc(-c2ccc(CN(C)C[C@@H]3Oc4cc(C#C[C@@H](C)O)ccc4S(=O)(=O)N([C@@H](C)CO)C[C@@H]3C)cc2)cc1 | 1480 nM |  |
| C[C@H](O)C#Cc1ccc2c(c1)O[C@@H](CN(C)Cc1ccc(-c3ccccc3)cc1)[C@H](C)CN([C@H](C)CO)S2(=O)=O | > 20000 nM (inactive) |  |
| C[C@@H]1CN([C@H](C)CO)S(=O)(=O)c2ccc(C#C[C@@H](C)O)cc2O[C@H]1CN(C)Cc1ccc(-c2ccccc2)cc1 | 7160 nM |  |
| C[C@@H]1CN([C@@H](C)CO)S(=O)(=O)c2ccc(C#C[C@@H](C)O)cc2O[C@@H]1CN(C)Cc1ccc(-c2ccccc2)cc1 | > 20000 nM (inactive) |  |
| C[C@H]1CN([C@@H](C)CO)S(=O)(=O)c2ccc(-c3ccc(O)cc3)cc2O[C@H]1CN(C)Cc1ccc(-c2ccccc2)cc1 | > 20000 nM (inactive) |  |
| COc1ccc(-c2ccc(CN(C)C[C@@H]3Oc4cc(C#C[C@@H](C)O)ccc4S(=O)(=O)N([C@@H](C)CO)C[C@@H]3C)cc2)cc1 | 2200 nM |  |
| C[C@H]1CN([C@@H](C)CO)S(=O)(=O)c2ccc(C#CC(C)(C)O)cc2O[C@H]1CN(C)Cc1ccc(-c2ccccc2)cc1 | > 20000 nM (inactive) |  |
| C[C@H](O)C#Cc1ccc2c(c1)O[C@H](CN(C)Cc1ccc(-c3ccccc3)cc1)[C@H](C)CN([C@H](C)CO)S2(=O)=O | > 20000 nM (inactive) |  |
| C[C@H]1CN([C@@H](C)CO)S(=O)(=O)c2ccc(Br)cc2O[C@H]1CN(C)Cc1ccc(-c2ccccc2)cc1 |  | activity change, negative = inhibition ([1]; at 10 µM (top of the series)): -19% (inactive) |
| C[C@@H](O)C#Cc1ccc2c(c1)O[C@@H](CN(C)Cc1ccc(-c3ccccc3Cl)cc1)[C@@H](C)CN([C@@H](C)CO)S2(=O)=O | 1340 nM |  |
| Cc1cccc(-c2ccc(CN(C)C[C@@H]3Oc4cc(C#C[C@@H](C)O)ccc4S(=O)(=O)N([C@@H](C)CO)C[C@@H]3C)cc2)c1 | 1740 nM |  |
| Cc1ccccc1-c1ccc(CN(C)C[C@@H]2Oc3cc(C#C[C@@H](C)O)ccc3S(=O)(=O)N([C@@H](C)CO)C[C@@H]2C)cc1 | 1160 nM |  |
| COc1ccccc1-c1ccc(CN(C)C[C@@H]2Oc3cc(C#C[C@@H](C)O)ccc3S(=O)(=O)N([C@@H](C)CO)C[C@@H]2C)cc1 | 2140 nM |  |
| C[C@H](O)C#Cc1ccc2c(c1)O[C@@H](CN(C)Cc1ccc(-c3ccccc3)cc1)[C@H](C)CN([C@@H](C)CO)S2(=O)=O |  | activity change, negative = inhibition ([1]; at 1 µM (top of the series)): 6% (inactive) |
| C[C@@H](O)C#Cc1ccc2c(c1)O[C@@H](CN(C)Cc1ccc(-c3cccc(Cl)c3)cc1)[C@@H](C)CN([C@@H](C)CO)S2(=O)=O | 2560 nM |  |
| C[C@@H](O)C#Cc1ccc2c(c1)O[C@@H](CN(C)S(=O)(=O)c1ccc(-c3ccccc3)cc1)[C@@H](C)CN([C@@H](C)CO)S2(=O)=O |  | activity change, negative = inhibition ([1]; at 10 µM (top of the series)): -14% (inactive) |
| C[C@H](O)C#Cc1ccc2c(c1)O[C@H](CN(C)Cc1ccc(-c3ccccc3)cc1)[C@@H](C)CN([C@@H](C)CO)S2(=O)=O | 5700 nM |  |
| C[C@H](O)C#Cc1ccc2c(c1)O[C@@H](CN(C)Cc1ccc(-c3ccccc3)cc1)[C@@H](C)CN([C@@H](C)CO)S2(=O)=O |  | activity change, negative = inhibition ([1]; at 10 µM (top of the series)): -4% (inactive) |
| C[C@@H](O)C#Cc1ccc2c(c1)O[C@@H](CN(C)Cc1ccccc1)[C@@H](C)CN([C@@H](C)CO)S2(=O)=O | 8730 nM |  |
